Measurements as given in patent US20180252705A1, “Myeloid Progenitor Cells in Kidney Disease” (Rush University Medical Center, priority 2015, published 2018).
“Also recorded” adds a separate entry of the source. Where a name gives a salt, the structure may show the parent alone.

What was measured:
LPS-challenged mice = assay: LPS-induced proteinuria after pretreatment, albumin creatinine ratio (ACR); assay type: in vivo, mouse; conditions: agent given prior to LPS challenge; urine 24 hours after LPS; compared to LPS alone / isotype control
Procedure: (§1) Albumin creatinine ratio (ACR) measurement Mouse urine samples were collected and urinary albumin and creatinine were measured by mouse albumin ELISA (Bethyl Labs), and creatinine assay (Cayman chemical) kits according to manufacturers' protocols. The ratio of urinary albumin to creatinine was then calculated.
(§2) Proteinuric animal models. i) LPS injected mice. Proteinuria was induced with single injection of LPS as described previously (Wei et al., 2008; Wei et al.,). Briefly, mice were injected with LPS (Sigma) i.p at a dose of 10 mg per kg body weight. The mice injected with PBS were used as a control. Twenty-four hours after LPS treatment, urine and blood samples were collected and kidney, femurs, and tibias were harvested from the sacrificed mice.
In vivo depletion. Anti-Ly6G monoclonal antibody (1A8, BioXcell) or control rat IgG2a antibody (2A3, BioXcell) was injected i.p into mice (500 μg per mouse) 48 hours and 1 hour prior to LPS injection. Neutrophil depletion was confirmed by flow cytometric analysis.
(§3) Treatment of granulocyte colony stimulating factor (G-CSF). Recombinant mouse G-CSF (Shenandoah Biotechology INC) was administrated by daily i.p injection into BALB/c mice at a dose of 4 μg per 20 g body weight for 2 consecutive days. Blood cell counts were determined using a Hemavet 950FS (Drew Scientific).
Treatment of plerixafor. […]

suPAR [1] = assay: Circulating and urinary suPAR levels (ELISA) in proteinuric animal models; assay type: in vivo, mouse
Procedure: (§4) Detection of circulating and urinary suPAR levels Mouse suPAR levels from plasma (and/or serum) and urine were evaluated by enzyme-linked immunosorbent assay (ELISA) kit (R&D systems) following the manufacturer's protocol.
as §2
ii) Pod-Rac1, Inducible EGFP_CA-Rac1 transgenic mice. EGFP_CA-Rac1 transgenic mice were crossed to Nphs1-rtTA (NEF-rtTA) inducer mice to generate double transgenic (dTG, NEF×Rac1) mice. Male mice were used in this study. To induce transgene expression, regular chow was replaced with doxycycline (DOX)-supplemented chow (2,000 ppm; TestDiet). Single transgenic (EGFP_CA-Rac1) mice were used as a control. Twelve days after DOX diet, urine and blood samples were collected and kidney, femurs, and tibias were harvested from the sacrificed mice. Hi) Adiamycin (ADR) injected mice: Proteinuria was induced with single injection of ADR as described previously. […]

BM myeloid cells = assay: Flow cytometric analysis of BM cells (uPAR, Gr-1, Sca-1) in proteinuric animal models; assay type: in vivo, mouse
Procedure: as §2
ii) Pod-Rac1, Inducible EGFP_CA-Rac1 transgenic mice. EGFP_CA-Rac1 transgenic mice were crossed to Nphs1-rtTA (NEF-rtTA) inducer mice to generate double transgenic (dTG, NEF×Rac1) mice. Male mice were used in this study. To induce transgene expression, regular chow was replaced with doxycycline (DOX)-supplemented chow (2,000 ppm; TestDiet). Single transgenic (EGFP_CA-Rac1) mice were used as a control. Twelve days after DOX diet, urine and blood samples were collected and kidney, femurs, and tibias were harvested from the sacrificed mice. Hi) Adiamycin (ADR) injected mice: Proteinuria was induced with single injection of ADR as described previously. (Wang et al.) Briefly, male BALB/c mice were injected with ADR (Doxorubicin Hydrochloride, Sigma) via the tail vein at a dose of 11 mg per kg body weight. Six days after ADR injection, urine and blood samples were collected and kidney, femurs, and tibias were harvested from the sacrificed mice. iv) TGF β1 transgenic mice: The transgenic mice that express an active form of TGF β1 under the control of murine albumin promoter developed proteinuria as described previously (Kopp et al.). Since the transgene is on the Y chromosome, male mice (<4-week-old) with severe phenotype were used. Littermate female mice were used as a control. v) Nephrotoxic serum (NTS) nephritis model: Proteinuria was induced by injection of NTS as described previously (Kistler et al.). Briefly, male C57BL6 mice were injected i.p with sheep anti-rabbit glomerular basement membrane antibody at a dose of 500 mg per kg body weight on consecutive days. The mice injected PBS were used as a control. Seven days after injection, urine and blood samples were collected and kidney, femurs, and tibias were harvested from the sacrificed mice. vi) BTBR ob/ob diabetic nephropathy (DN) model: The mouse strain BTBR with the ob/ob leptin-deficiency mutation developed severe type 2 diabetes with heavy proteinuria as described previously (Hudkins et al.). Wild-type (BTBR ob^+/+), heterozygous (BTBR ob^+/−), and homozygous (BTBR ob^−/−) mice were obtained by mating heterozygous (BTBR ob^+/−) mice. For DN model, 16-week-old homozygotes (BTBR ob^−/−) were used. Wild-type (BTBR ob^+/+) or heterozygote (BTBR ob^+/−) littermates were used as controls.
Purification of mouse PBLs and BMCs. To collect blood, mice were anesthetized, then the blood was drawn from posterior vena cava into acid-citrate-dextrose (ACD, Sigma) solution-containing 1 ml syringe. After lysis of red blood cells (RBCs), blood leukocytes were washed and counted. For BMCs purification, femurs and tibias were taken and flushed with a syringe filled with Hank's balanced salt solution (HBSS, Life Technologies) containing 0.1% bovine serum albumin and 20 mM HEPES (pH 7.4). […]
Flow cytometric analysis. […] And the cells were labeled for 30 minutes on ice with fluorescence-conjugated antibodies: Gr-1-allophycocyanin (APC), uPAR-phycoerythrin (PE), Sca-1-fluorescein isothiocyanate (FITC), c-kit-APC, and irrelevant IgG isotype control antibodies. […]

NSG mice = assay: Proteinuria (ACR) in LPS injected NSG mice; assay type: in vivo, mouse; conditions: LPS vs PBS, 24 hours after LPS administration
Procedure: as §1, §2

BM cells = assay: in vitro LPS stimulation on isolated BM cells; assay type: cell-based, mouse; conditions: LPS 0.1, 1 and 10 μg/ml, 24-hour incubation, dose-dependent
Procedure: in vitro LPS stimulation on isolated BM cells. The BM cells were isolated from C57BL6 WT mice and treated with PBS or various concentrations of LPS (0.1, 1, and 10 μg/ml). Following 24-hour-incubation at 37 C in a CO2 incubator (5%), the cells and culture supernatants were collected. The cells were stained for uPAR, Sca-1, and Gr-1. The in vitro induction of uPAR+Sca-1^loGr-1^lo cells in total BM cells was determined by triple color-flow cytometric analysis. The culture supernatants were used for suPAR measurement.

suPAR [2] = assay: Plasma suPAR levels (ELISA) in pretreated LPS-challenged mice; assay type: in vivo, mouse; conditions: G-CSF for two consecutive days prior to LPS; 24 hours after LPS; compared to LPS alone
Procedure: as §4, §2, §3

[3] = ADR-induced nephropathy, male BALB/c, 11 mg per kg tail vein, six days after injection

c1cc(CN2CCCNCCNCCCNCC2)ccc1CN1CCCNCCNCCCNCC1 [plerixafor, Plerixafor] was tested, and the “proteinuria (ACR)” value (LPS-challenged mice) was “did not enhance proteinuria”.

With COc1cccc2c1C(=O)c1c(O)c3c(c(O)c1C2=O)C[C@@](O)(C(=O)CO)C[C@@H]3O[C@H]1C[C@H](N)[C@H](O)[C@H](C)O1 [ADR, Doxorubicin Hydrochloride] the “suPAR levels in the circulation or urine” value (suPAR [1]; [3]) was “did not find elevated suPAR levels” and the “percentage of Gr-1^lo myeloid cells in BM” value (BM myeloid cells; [3]) was “no significant increase”.

In the case of lipopolysaccharide [LPS], the “proteinuria (ACR)” value (NSG mice) is reported as “resulting in proteinuria; also recorded: caused proteinuria”, the “suPAR levels in blood and urine” value (suPAR [1]; NSG mice, LPS vs PBS, 24 hours after LPS administration) is reported as “elevated suPAR levels in both blood and urine; also recorded: enhanced blood suPAR levels” and the “uPAR-expressing Sca-1/Gr-1^lo BM cell population (myeloid progenitor cells)” value (BM myeloid cells; LPS vs PBS injected mice, 24 hours) is reported as “increased uPAR-expressing BM cell population; also recorded: increased the population of Sca-1^+Gr-1^lo myeloid progenitor cells”. The “uPAR expression on BM myeloid cells (not peripheral blood myeloid cells)” value (BM myeloid cells; LPS-treated vs PBS-treated mice) was “elevated levels of uPAR; also recorded: increased uPAR expression”, the “uPAR expression on BM myeloid cells” value (BM myeloid cells; NSG mice, LPS vs PBS) was “increased uPAR expression on BM myeloid cells” and the “Gr-1^lo cells in BM (percentage; ratio to Gr-1^hi)” value (BM myeloid cells; WT mice, LPS vs PBS, 24 hours) was “significant increase; also recorded: markedly increased ratio”. The “expansion of uPAR-expressing MPCs (uPAR+Sca-1^lo Gr-1^lo cells in total BM cells)” value (BM cells) was “stimulated the expansion of uPAR-expressing MPCs” and the “suPAR secretion into the culture medium” value (BM cells; suPAR ELISA) was “stimulated”.

B1: G-CSF: Recombinant mouse G-CSF (Shenandoah Biotechology INC) (protein, UniProt P09920 31-208, looked up)
Granulocyte …: VPLVTVSALPPSLPLPRSFLLKSLEQVRKIQASGSVLLEQLCATYKLCHPEELVLLGHSLGIPKASLSGCSSQALQQTQCLSQLHSGLCLYQGLLQALSGISPALAPTLDLLQLDVANFATTIWQQMENLGVAPTVQPTQSAMPAFTSAFQRRAGGVLAISYLQGFLETARLALHHLA
In the case of B1, the “proteinuria (ACR)” value (LPS-challenged mice) is reported as “accelerated proteinuria” and the “plasma suPAR levels” value (suPAR [2]) is reported as “increased plasma suPAR levels; also recorded: enhanced plasma suPAR levels”.
